Experimental data from BindingDB's records for patent US20250051327 (Exscientia AI, 2025).
pIC50: −log10 of the molar value.

What follows are molecules tested against T1, Mucosa-associated lymphoid tissue lymphoma translocation protein 1 (Homo sapiens, UniProt Q9UDY8) (assay: MALT-1 Inhibition Assay).
T1 sequence (Q9UDY8 whole entry): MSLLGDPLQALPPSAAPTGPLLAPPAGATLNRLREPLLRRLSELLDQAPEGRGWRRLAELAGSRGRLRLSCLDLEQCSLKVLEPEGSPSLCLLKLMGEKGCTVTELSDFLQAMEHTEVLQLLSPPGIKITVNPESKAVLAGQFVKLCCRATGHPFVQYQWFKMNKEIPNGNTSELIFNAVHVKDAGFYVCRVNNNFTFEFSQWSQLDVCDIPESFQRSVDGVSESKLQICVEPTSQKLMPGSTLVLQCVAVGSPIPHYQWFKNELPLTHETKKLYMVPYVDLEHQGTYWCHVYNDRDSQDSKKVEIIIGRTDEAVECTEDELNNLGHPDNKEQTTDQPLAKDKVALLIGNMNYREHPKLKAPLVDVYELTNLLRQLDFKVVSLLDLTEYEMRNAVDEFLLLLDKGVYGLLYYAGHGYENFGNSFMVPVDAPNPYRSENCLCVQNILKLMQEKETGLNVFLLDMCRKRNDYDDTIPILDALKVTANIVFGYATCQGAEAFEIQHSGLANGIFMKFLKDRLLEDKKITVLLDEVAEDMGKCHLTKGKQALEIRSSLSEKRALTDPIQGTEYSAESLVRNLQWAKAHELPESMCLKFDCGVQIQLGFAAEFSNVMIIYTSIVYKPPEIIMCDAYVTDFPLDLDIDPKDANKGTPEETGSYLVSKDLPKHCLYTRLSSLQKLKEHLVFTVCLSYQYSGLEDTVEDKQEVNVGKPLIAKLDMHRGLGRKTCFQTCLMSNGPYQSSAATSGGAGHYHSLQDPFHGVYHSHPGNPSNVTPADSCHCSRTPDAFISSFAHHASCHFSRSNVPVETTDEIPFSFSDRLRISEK
Experimental: MALT-1 paracaspase activity was measured using the fluorogenic substrate Ac-LRSR-Rh110-DP (purchased from Biosantan GmbH). Proteolytic cleavage of the peptide—rhodamine conjugate results in an increase of rhodamine fluorescence which is inhibited by test compounds. Test compounds were diluted in DMSO in a series of 10 semi-log step doses, 15 nL of each compound dose were dispensed in 384 well polypropylene plates (HiBase non-binding, Greiner Bio-One cat #784900). All other assay components were diluted to appropriate working concentrations in assay buffer composed of: 200 mM Tris-HCl (pH 7.5; Sigma-Aldrich cat #T2663-1L), 0.1 mM EGTA (Sigma-Aldrich cat #E3889-10G), 0.05% CHAPS—Sigma-Aldrich cat #C9426-1G), 1 mM TCEP (Sigma-Aldrich cat #646547-10×1 mL), 0.8 M sodium citrate (Sigma-Aldrich cat #S1804-500G). Recombinant human MALT-1 (amino acids 340-824, accession NP_006776.1) was added to compound doses and equilibrated for 40 minutes at rt. The reaction was initiated by addition of substrate. Final concentrations of MALT-1 and substrate were 3 nM and 10 μM respectively. Reactions were incubated in the dark for 60 minutes at 25° C. Fluorescence was measured in a PHERAstar FSX plate reader (BMG LABTECH) with optical setup for excitation at 485 nm and emission at 520 nm, focal height of 11.8 mm, 20 flashes, gain 300. Percent inhibition values were calculated from relative fluorescence units at different doses and fitted to a 4-parameter logistic curve to determine IC50 values.

Row | pIC50 | SMILES
1 | 6.86 | COc1ccc2ncc(Nc3ccc([C@H](N(C)C(=O)C4CCS(=O)(=O)CC4)C(F)(F)F)cn3)c([C@@H](C)OC)c2n1 (relative stereo) [US20250051327, Reference CPD0019006]
2 | 7.19 | COc1ccc2ncc(Nc3ccc([C@H](N(C)C(=O)C4CCS(=O)(=O)CC4)C(F)(F)F)cc3)c([C@H](C)OC)c2n1 (relative stereo) [US20250051327, Reference CPD0019170]
3 | 6.71 | COc1ccc2ncc(Nc3ccc([C@H](N(C)C(=O)C4CCS(=O)(=O)CC4)C(F)(F)F)cc3)c([C@@H](C)OC)c2n1 (relative stereo) [US20250051327, Reference CPD0019171]
4 | 7.12 | COc1ccc2ncc(Nc3ccc([C@H](N(C)C(=O)[C@H]4CC[S@@+]([O-])CC4)C(F)(F)F)cc3)c([C@H](C)OC)c2n1 (relative stereo) [US20250051327, Reference CPD0072935]
5 | 7.17 | COc1ccc2ncc(Nc3ccc([C@H](N(C)C(=O)[C@H]4CC[S@+]([O-])CC4)C(F)(F)F)cc3)c([C@H](C)OC)c2n1 (relative stereo) [US20250051327, Reference CPD0072936]
6 | 6.97 | COc1ccc2ncc(Nc3ccc([C@H](N(C)C(=O)C4CCS(=O)(=O)CC4)C(F)(F)F)cc3)c([C@H]3CCCO3)c2n1 (relative stereo) [US20250051327, Reference CPD0074043]
7 | 6.66 | COc1ccc2ncc(Nc3ccc([C@H](N(C)C(=O)C4CCS(=O)(=O)CC4)C(F)(F)F)cc3)c([C@@H]3CCCO3)c2n1 (relative stereo) [US20250051327, Reference CPD0074044]
8 | 7.09 | COc1ccc2ncc(Nc3ccc([C@H](N(C)C(=O)[C@@H]4CNC(=O)C4)C(F)(F)F)cc3)c([C@H](C)OC)c2n1 (relative stereo) [US20250051327, Reference CPD0074550]
9 | 7.41 | C[C@H]1CCN(c2ccc([C@H](N(C)C(=O)[C@H]3CC[S@](=N)(=O)CC3)C(F)(F)F)cc2)c2cnc3cc(F)nn3c21 (relative stereo) [US20250051327, Reference CPD0074553]
10 | 7.36 | C[C@H]1CCN(c2ccc([C@H](N(C)C(=O)[C@H]3CC[S@@](=N)(=O)CC3)C(F)(F)F)cc2)c2cnc3cc(F)nn3c21 (relative stereo) [US20250051327, Reference CPD0074554]
11 | 6.82 | COc1ccc2ncc(Nc3ccc([C@H](N(C)C(=O)C4CCN(C(C)=O)CC4)C(F)(F)F)cc3)c([C@H](C)OC)c2n1 (relative stereo) [US20250051327, Reference CPD0074559]
12 | 7.10 | COc1ccc2ncc(Nc3ccc([C@H](N(C)C(=O)[C@H]4CNC(=O)C4)C(F)(F)F)cc3)c([C@H](C)OC)c2n1 (relative stereo) [US20250051327, Reference CPD0074562]
13 | 7.33 | COc1ccc2ncc(Nc3ccc([C@H](N(C)C(=O)[C@@H]4CCC(=O)N4)C(F)(F)F)cc3)c([C@H](C)OC)c2n1 (relative stereo) [US20250051327, Reference CPD0075580]
14 | 7.43 | COc1ccc2ncc(Nc3ccc([C@H](N(C)C(=O)[C@H]4CCC(=O)N4)C(F)(F)F)cc3)c([C@H](C)OC)c2n1 (relative stereo) [US20250051327, Reference CPD0075581]
15 | 7.38 | CO[C@@H](C)c1c(Nc2ccc([C@H](N(C)C(=O)[C@H]3CNC(=O)C3)C(F)(F)F)cc2)cnn2cc(Cl)nc12 (relative stereo) [US20250051327, Reference CPD0082467]
16 | 7.43 | CO[C@@H](C)c1c(Nc2ccc([C@H](N(C)C(=O)[C@H]3CCC(=O)NC3)C(F)(F)F)cc2)cnn2cc(Cl)nc12 (relative stereo) [US20250051327, Reference CPD0082471]
17 | 7.39 | CO[C@@H](C)c1c(Nc2ccc([C@H](N(C)C(=O)[C@@H]3CCC(=O)NC3)C(F)(F)F)cc2)cnn2cc(Cl)nc12 (relative stereo) [US20250051327, Reference CPD0082472]
18 | 7.39 | COc1ccc2ncc(Nc3ccc([C@H](N(C)C(=O)[C@H]4CNC(=O)C4)C(F)(F)F)cc3)c([C@@H]3CCOC3)c2n1 (relative stereo) [US20250051327, Reference CPD0082477]

Row | pIC50 | SMILES
19 | 7.28 | CO[C@@H](C)c1c(Nc2ccc([C@H](N(C)C(=O)[C@H]3CCN(C(=O)CO)C3)C(F)(F)F)cc2)cnn2cc(Cl)nc12 (relative stereo) [US20250051327, Reference CPD0084139]
20 | 7.35 | CO[C@@H](C)c1c(Nc2ccc([C@H](N(C)C(=O)[C@@H]3CCN(C(=O)CO)C3)C(F)(F)F)cc2)cnn2cc(Cl)nc12 (relative stereo) [US20250051327, Reference CPD0084140]
21 | 7.14 | COc1ccc2ncc(Nc3ccc([C@H](N(C)C(=O)[C@H]4CNC(=O)C4)C(F)(F)F)cc3)c([C@H]3CCOC3)c2n1 (relative stereo) [US20250051327, Reference CPD0084143]
22 | 7.12 | COc1ccc2ncc(Nc3ccc([C@H](N(C)C(=O)[C@@H]4CNC(=O)C4)C(F)(F)F)cc3)c([C@H]3CCOC3)c2n1 (relative stereo) [US20250051327, Reference CPD0084144]
23 | 6.62 | COc1ccc2ncc(Nc3ccc([C@H](N(C)C(=O)C4CCS(=O)(=O)CC4)C(F)(F)F)cn3)c(C(C)OC)c2n1 (stereo partly specified) [US20250051327, Reference CPD0019007]
24 | 6.74 | COc1ccc2ccc(Nc3ccc([C@H](N(C)C(=O)C4CCS(=O)(=O)CC4)C(F)(F)F)cc3)cc2n1 [US20250051327, Reference CPD0019078]
25 | 6.50 | CN(C(=O)C1CCS(=O)(=O)CC1)[C@@H](c1ccc(N2CCCc3c2cnc2cc(Cl)nn32)nc1)C(F)(F)F [US20250051327, Reference CPD0019212]
26 | 7.19 | CN(C(=O)C1CCS(=O)(=O)CC1)[C@@H](c1ccc(N2CCC3(CC3)c3c2cnc2cc(Cl)nn32)cc1)C(F)(F)F [US20250051327, Reference CPD0019590]
27 | 7.06 | CN(C(=O)C1CCS(=O)(=O)CC1)[C@@H](c1ccc(N2CCC3(CC3)c3c2cnc2cc(Cl)nn32)nc1)C(F)(F)F [US20250051327, Reference CPD0021660]
28 | 6.95 | COC[C@@]1(C)CCN(c2ccc([C@H](N(C)C(=O)C3CCS(=O)(=O)CC3)C(F)(F)F)cc2)c2cnc3cc(Cl)nn3c21 [US20250051327, Reference CPD0073139]
29 | 7.04 | COC[C@]1(C)CCN(c2ccc([C@H](N(C)C(=O)C3CCS(=O)(=O)CC3)C(F)(F)F)cc2)c2cnc3cc(Cl)nn3c21 [US20250051327, Reference CPD0073140]
30 | 6.94 | CN(C(=O)[C@@H]1CCN(C(=O)CC#N)C1)[C@@H](c1ccc(N2CCCc3c2cnc2cc(Cl)nn32)cc1)C(F)(F)F [US20250051327, Reference CPD0073190]
31 | 7.02 | CN(C(=O)[C@H]1CCN(C(=O)CC#N)C1)[C@@H](c1ccc(N2CCCc3c2cnc2cc(Cl)nn32)cc1)C(F)(F)F [US20250051327, Reference CPD0073191]
32 | 7.24 | CN(C(=O)[C@H]1C[C@@H]([S@@+](C)(=N)[O-])C1)[C@@H](c1ccc(N2CCCc3c2cnc2cc(Cl)nn32)cc1)C(F)(F)F [US20250051327, Reference CPD0073223]
33 | 7.28 | CN(C(=O)[C@H]1CC[S@](=N)(=O)CC1)[C@@H](c1ccc(N2CC(C)(C)Cc3c2cnc2cc(Cl)nn32)cc1)C(F)(F)F [US20250051327, Reference CPD0073497]
34 | 7.28 | CN(C(=O)[C@H]1CC[S@@](=N)(=O)CC1)[C@@H](c1ccc(N2CC(C)(C)Cc3c2cnc2cc(Cl)nn32)cc1)C(F)(F)F [US20250051327, Reference CPD0073498]
35 | 6.94 | COC[C@@H]1CCN(c2ccc([C@H](N(C)C(=O)C3CCS(=O)(=O)CC3)C(F)(F)F)cc2)c2cnc3cc(Cl)nn3c21 [US20250051327, Reference CPD0073503]
36 | 6.39 | O=C(CC1CS(=O)(=O)C1)N[C@@H](c1ccc(N2CCCc3c2cnc2cc(Cl)nn32)cc1)C(F)(F)F [US20250051327, Reference CPD0073535]
